{
  "source": "paper PMC5404848",
  "about": "(Cell Chemical Biology, 2017)",
  "type_in_all_cases": "cell-based, Human",
  "key": {"HCT116 p53^wt cells [1]": {"system": "HCT116 p53^wt cells", "assay": "MTT assay (cell viability), 6 days treatment", "conditions": "for GI50: HCT116^wt, MTT assay", "protocol": "(§1) To test the biological activity of the compounds, we performed MTT (3-(4,5-dimethylthiazol-2-yl)-2,5-diphenyltetrazolium bromide) and lactate dehydrogenase (LDH) release assays. […] To track not only the toxic (lethal) but also growth-inhibitory (GI) effect in the MTT assay, we treated the cells for 6 days.\n(§2) For MTT assay, the cells were seeded on 96-well transparent plates and treated the next day with the compounds or DMSO for 6 days. Thiazolyl Blue Tetrazolium Bromide (MTT, Sigma Aldrich) was added for 60 minutes to a final concentration of […]. The medium was removed and MTT crystals were dissolved in isopropanol supplemented with 40 mM HCl. The absorbance was measured with Infinite 200 microplate reader (Tecan Group Ltd.) at 570 nm with the reference wavelength 650 nm for background subtraction."}, "HCT116 p53^−/− cells [2]": {"system": "HCT116 p53^−/− cells", "assay": "MTT assay (cell viability), 6 days treatment", "conditions": "for GI50: HCT116 p53^−/−, MTT assay", "protocol": "as §1, §2"}, "HCT116 p53^wt cells [3]": {"system": "HCT116 p53^wt cells", "assay": "Caspase 3/7 activity (Caspase-Glo 3/7)", "protocol": "To evaluate whether the observed effects are accompanied by the induction of apoptosis, we examined the activation of caspases 3 and 7 in HCT116 p53^wt cells.\nThe cells were plated on the 96-well white, flat bottom plates (Falcon) and treated with DMSO, LCAHA or Staurosporine. For the detection of caspase activity Caspase-Glo 3/7 Assay System was used (Promega) according to the manufacturer’s instructions."}, "HCT116 p53^wt cells [4]": {"system": "HCT116 p53^wt cells", "text": "[…]. To investigate this effect, we analyzed the cell-cycle distribution. Cells treated for 48 hr with LCAHA or DMSO were pulse-labeled with BrdU for 1 hr and stained with fluorescein isothiocyanate (FITC)-anti-bromodeoxyuridine (BrdU) antibody and propidium iodide (PI). […].\n[…]. To track the progression through the S phase and G0/G1 arrest precisely, we analyzed FITC-positive and -negative cells separately for cell-cycle distribution using ModFit LT software.\n[…]. After that, the cells were either harvested by trypsinization and fixed with 96% ethanol, or cultured for additional 3-9 hours in the absence of BrdU before harvesting and fixation. The cells were stained with PI and FITC-conjugated anti-BrdU antibody (BioLegend, cat. 364104) and analysed with Fortessa flow cytometer (Becton Dickinson). Cell cycle distribution was analysed using ModFit LT Software (Verity Software House).\nFigure S2. PI-BrdU pulse-chase labeling of HCT116 cells for the evaluation of cell cycle progression following LCAHA treatment. […].\nHCT116 p53wt cells were seeded on culture dishes in growth medium containing 3.3% FBS and treated […]\nthe end of the treatment half of the medium was collected in a falcon tube, and the other half was supplemented with BrdU in a final concentration of 10 µM. After one hour, the medium containing BrdU was removed and the cells were trypsinized and fixed (time “t0”) or cultured in the medium previously collected in the falcon tube for additional 3, 6 or 9 hours. After that time the cells were trypsinized, fixed and stained with FITC conjugated anti-BrdU antibody and propidium iodide (PI). The cells were analyzed by flow cytometry using BD Fortessa cell analyzer and BD […] software. All cells, as well as FITC positive (BrdU+, top panel) and FITC negative (BrdU-, bottom panel) counts were exported to separate files and analyzed separately using ModFit LT Software. The graphs show mean ± SD values from three independent experiments. The statistical significance was evaluated using one-way ANOVA with Tukey’s […]"}, "HCT116 p53^−/− cells [5]": {"system": "HCT116 p53^−/− cells", "assay": "Cell cycle analysis (PI / BrdU, flow cytometry)", "conditions": "5 or 10 μM, 48 hr", "protocol": "Low concentrations of LCAHA inhibit the growth of HCT116 cells without affecting their survival. To investigate this effect, we analyzed the cell-cycle distribution. Cells treated for 48 hr with LCAHA or DMSO were pulse-labeled with BrdU for 1 hr and stained with fluorescein isothiocyanate (FITC)-anti-bromodeoxyuridine (BrdU) antibody and propidium iodide (PI).\nThe cells were treated with DMSO or LCAHA for 48 hours and pulse-labelled with 10 μM bromodeoxyuridine (BrdU, Sigma Aldrich) for the last hour of the treatment. After that, the cells were either harvested by trypsinization and fixed with 96% ethanol, or cultured for additional 3-9 hours in the absence of BrdU before harvesting and fixation. The cells were stained with PI and FITC-conjugated anti-BrdU antibody (BioLegend, cat. 364104) and analysed with Fortessa flow cytometer (Becton Dickinson). Cell cycle distribution was analysed using ModFit LT Software (Verity Software House)."}, "MCF-7 cells": {"system": "MCF-7 cells", "assay": "Synchronization-release assay (serum starvation and release)", "conditions": "pre-treatment during 2 days serum starvation, release 10% FBS 24 hr", "text": "Cyclin D1 is a key modulator of the transition through the G1/S checkpoint and is known to be sensitive to proliferative signals delivered by the mitogens. To evaluate the interplay between the mitogens provided by the serum and LCAHA, we performed a synchronization-release assay on the cells treated with LCAHA. To assess the involvement of cyclin D1 in this interplay, we used MCF-7 (cyclin D1-dependent) and SAOS-2 (cyclin D1-negative) cells. The cells were synchronized in G0/G1 by the removal of fetal bovine serum (FBS) for 2 days of the culture in the presence of LCAHA. After this time, the cells were released by the addition of medium containing 10% FBS for 24 hr (still in the presence of the compound).\nFigure S4. The analysis of the progression of MCF-7 and SAOS-2 cells through the cell cycle following serum starvation and release by the addition of serum. Related to […]\nFor the experiment, cyclin D1-dependent MCF-7 and cyclin D1-negative SAOS-2 cell lines were used.\nThe cells were synchronized in G0/G1 by the removal of FBS for 2 days of the culture in the presence of LCAHA compound. […] The cells were fixed, stained with PI and analysed for cell cycle distribution with ModFit LT Software. […] The statistical significance was evaluated using t-test: * p<0.05, ** […]"}, "[6]": {"conditions": "Homo sapiens, HCT-116, 144 h, 6 days"}, "[7]": {"conditions": "concentration range 2–20 μM, MTT, 6 days"}, "[8]": {"conditions": "5 μM, 48 hr, nine hours after BrdU pulse"}},
  "data": [
    {"smiles": "C[C@H](CCC(=O)NO)[C@H]1CC[C@H]2[C@@H]3CC[C@@H]4C[C@H](O)CC[C@]4(C)[C@H]3CC[C@]12C", "note": "[LCAHA, N-(hydroxy)-3-hydroxylithocholanamide]", "values": [
      {"measurement": "GI50", "setting": "HCT116 p53^wt cells [1]; 6 days", "result": "870 ± 90", "unit": "nM"},
      {"measurement": "GI50", "setting": "HCT116 p53^wt cells [1]; [6]", "result": "< 1000", "unit": "nM"},
      {"measurement": "LD50 (concentration killing 50% of cells)", "setting": "HCT116 p53^wt cells [1]; Homo sapiens, HCT-116, 144 h, read-out: LD50, HCT116^wt, MTT assay, 6 days", "result": "> 25", "unit": "µM"},
      {"measurement": "growth of cells inhibited", "setting": "HCT116 p53^wt cells [1]; [7]", "result": "about 60%"},
      {"measurement": "GI50", "setting": "HCT116 p53^−/− cells [2]; 6 days", "result": "960 ± 290", "unit": "nM"},
      {"measurement": "GI50", "setting": "HCT116 p53^−/− cells [2]; [6]", "result": "< 1000", "unit": "nM"},
      {"measurement": "LD50", "setting": "HCT116 p53^−/− cells [2]; Homo sapiens, HCT-116, 144 h, read-out: LD50, HCT116 p53^−/−, MTT assay, 6 days", "result": "> 25", "unit": "µM"},
      {"measurement": "growth of cells inhibited", "setting": "HCT116 p53^−/− cells [2]; [7]", "result": "about 60%"},
      {"measurement": "caspase 3 and 7 activity", "setting": "HCT116 p53^wt cells [3]; 10 μM", "result": "increase of caspase activity significant"},
      {"measurement": "caspase 3 and 7 activity", "setting": "HCT116 p53^wt cells [3]; 1 or 5 μM, 48 or 72 hr", "result": "weak and non-significant increase"},
      {"measurement": "BrdU incorporation (rate of DNA synthesis)", "setting": "HCT116 p53^wt cells [4]", "result": "dose-dependent decrease in the rate of DNA synthesis"},
      {"measurement": "BrdU^− cells that left G0/G1 phase and entered the S phase", "setting": "HCT116 p53^wt cells [4]; [8]", "result": 20, "unit": "%"},
      {"measurement": "proportion of BrdU^+ cells in G0/G1 phase", "setting": "HCT116 p53^wt cells [4]; [8]", "result": 24, "unit": "%"},
      {"measurement": "proportion of BrdU^+ cells remaining in the S phase", "setting": "HCT116 p53^wt cells [4]; [8]", "result": 56, "unit": "%"},
      {"measurement": "cell-cycle progression", "setting": "HCT116 p53^wt cells [4]; 5 μM, control siRNA-transfected HCT116 cells", "result": "blocked the cell-cycle progression"},
      {"measurement": "G0/G1 arrest", "setting": "HCT116 p53^wt cells [4]; 5 or 10 μM, 48 hr", "result": "mild, but significant G0/G1 arrest"},
      {"measurement": "G0/G1 arrest", "setting": "HCT116 p53^−/− cells [5]", "result": "mild, but significant G0/G1 arrest"},
      {"measurement": "entry into the S phase after serum release", "setting": "MCF-7 cells", "result": "significantly inhibited the entry into the S phase"}
    ]}
  ]
}
